Earlier results on 53 compounds are cited in patent US20100112724A1, “METHOD OF DETERMINATION OF PROTEIN LIGAND BINDING AND OF THE MOST PROBABLE LIGAND POSE IN PROTEIN BINDING SITE” (priority 2007, published 2010).

The test system of this series is protein of the protein-ligand complex (pdb code). The settings on record: experimentally known binding affinity of test and training protein-ligand complexes selected from PDB, structures described in publications [7, 8, 9].
As for `CC(=O)N[C@H]1[C@H]([C@H](O)[C@H](O)CO)OC(C(=O)O)=C[C@@H]1N=C(N)N` [2QWE], the “ΔG, kcal/mol (free energy of ligand-protein binding)” value is -10.2 kcal/mol. Take `CCN[C@H]1C[C@H](C)S(=O)(=O)c2sc(S(N)(=O)=O)cc21` [1CIL]: the “ΔG, kcal/mol (free energy of ligand-protein binding)” value was -12.9 kcal/mol. Turning to `N[C@@H](Cc1c[nH]cn1)C(=O)O` [1HSL], the “ΔG, kcal/mol (free energy of ligand-protein binding)” value was -9.8 kcal/mol. Consider `O=C(O)C[C@H](NC(=O)CP(=O)(O)O)C(=O)O` [8ATC], for which the “ΔG, kcal/mol (free energy of ligand-protein binding)” value was -10.3 kcal/mol. Consider `Nc1ccnc2c1ncn2[C@@H]1O[C@H](CO)[C@@H](O)[C@H]1O` [1ADD], for which the “ΔG, kcal/mol (free energy of ligand-protein binding)” value is -9.2 kcal/mol. Regarding `O=C(O)[C@@H](O)Cc1ccccc1` [2CTC], the “ΔG, kcal/mol (free energy of ligand-protein binding)” value was -5.3 kcal/mol. As for `CC(=O)N[C@H]1[C@H]([C@H](O)[C@H](O)CO)OC(C(=O)O)=C[C@@H]1O` [1NNB], the “ΔG, kcal/mol (free energy of ligand-protein binding)” value is -7.2 kcal/mol. As to `C[C@H]1O[C@H](O)[C@H](O)[C@@H](O)[C@H]1O` [7ABP], the “ΔG, kcal/mol (free energy of ligand-protein binding)” value was -8.7 kcal/mol.

With `N=C(N)c1ccccc1` [3PTB], the “ΔG, kcal/mol (free energy of ligand-protein binding)” value is -6.3 kcal/mol.

For `CC(=O)N[C@H]1[C@H]([C@H](O)[C@H](O)CO)OC(C(=O)O)=C[C@@H]1N` [2QWD], the “ΔG, kcal/mol (free energy of ligand-protein binding)” value was -6.6 kcal/mol.

On to `NS(=O)(=O)c1ccc(S(=O)(=O)NCc2cccs2)s1` [1BNW], for which the “ΔG, kcal/mol (free energy of ligand-protein binding)” value was -12.9 kcal/mol.

As to `CN[C@H]1CN(c2cccc(OC)c2)S(=O)(=O)c2sc(S(N)(=O)=O)cc21` [1BNM], the “ΔG, kcal/mol (free energy of ligand-protein binding)” value is -14.2 kcal/mol. With `O=C(O)C[C@@H](Cc1ccccc1)C(=O)O` [1CBX], the “ΔG, kcal/mol (free energy of ligand-protein binding)” value was -8.7 kcal/mol. Consider `O=C(O)COP(=O)(O)O` [2YPI], for which the “ΔG, kcal/mol (free energy of ligand-protein binding)” value is -6.6 kcal/mol. Consider `N[C@H]1C[C@@H]1c1ccccc1` [1TNL], for which the “ΔG, kcal/mol (free energy of ligand-protein binding)” value is -2.6 kcal/mol.

As to `NCC1CCCCC1` [1TNG], the “ΔG, kcal/mol (free energy of ligand-protein binding)” value is -4 kcal/mol. For `OC[C@H]1O[C@H](O)[C@H](O)[C@@H](O)[C@H]1O` [8ABP], the “ΔG, kcal/mol (free energy of ligand-protein binding)” value is -10.7 kcal/mol. On to `C[C@H]1O[C@H](O)[C@H](O)[C@@H](O)[C@H]1O` [1ABF], for which the “ΔG, kcal/mol (free energy of ligand-protein binding)” value was -7.3 kcal/mol.

Turning to `NCCCc1ccccc1` [1TNK], the “ΔG, kcal/mol (free energy of ligand-protein binding)” value is -2 kcal/mol. As to `OC[C@H]1O[C@H](O[C@H]2[C@H](O)[C@@H](O)[C@H](O)O[C@@H]2CO)[C@H](O)[C@@H](O)[C@@H]1O` [1ANF], the “ΔG, kcal/mol (free energy of ligand-protein binding)” value was -7.3 kcal/mol. `O[C@@H]1[C@@H](O)[C@@H](O)OC[C@@H]1O` [1BAP]: the “ΔG, kcal/mol (free energy of ligand-protein binding)” value is -9.3 kcal/mol.

With `CC(C)C[C@H](NP(=O)(O)O)C(N)=O` [2TMN], the “ΔG, kcal/mol (free energy of ligand-protein binding)” value is -8 kcal/mol. For `Nc1nc(=O)c2nc(CNc3ccc(C(=O)N[C@@H](CCC(=O)O)C(=O)O)cc3)cnc2[nH]1` [1DHF], the “ΔG, kcal/mol (free energy of ligand-protein binding)” value is -10.1 kcal/mol. Regarding `OC[C@H]1O[C@@H](O)[C@H](O)[C@@H](O)[C@H]1O` [9ABP], the “ΔG, kcal/mol (free energy of ligand-protein binding)” value is -10.7 kcal/mol. As to `OC[C@H]1O[C@@H](O)[C@H](O)[C@@H](O)[C@@H]1O` [2GBP], the “ΔG, kcal/mol (free energy of ligand-protein binding)” value is -10.2 kcal/mol. In the case of `CC1=C(/C=C/C(C)=C/C=C/C(C)=C/CO)C(C)(C)CCC1` [1RBP], the “ΔG, kcal/mol (free energy of ligand-protein binding)” value was -9.2 kcal/mol. As for `Nc1nc2c(ncn2[C@@H]2O[C@H](CO)[C@@H](O)[C@H]2OP(=O)(O)O)c(=O)[nH]1` [1RNT], the “ΔG, kcal/mol (free energy of ligand-protein binding)” value was -7.1 kcal/mol. For `O=C(O)[C@H](O)[C@@H](O)[C@H](O)[C@H](O)COP(=O)(O)O` [1PGP], the “ΔG, kcal/mol (free energy of ligand-protein binding)” value was -7.8 kcal/mol. Regarding `NCCCCc1ccccc1` [1TNI], the “ΔG, kcal/mol (free energy of ligand-protein binding)” value was -2.3 kcal/mol. As for `NCCc1ccccc1` [1TNJ], the “ΔG, kcal/mol (free energy of ligand-protein binding)” value was -2.7 kcal/mol. `COc1ccc(N2C[C@H](O)c3cc(S(N)(=O)=O)sc3S2(=O)=O)cc1` [1BNT]: the “ΔG, kcal/mol (free energy of ligand-protein binding)” value was -13.9 kcal/mol. On to `CN[C@H]1C[C@H](C)S(=O)(=O)c2sc(S(N)(=O)=O)cc21` [1CIN], for which the “ΔG, kcal/mol (free energy of ligand-protein binding)” value was -11.9 kcal/mol. `CC(=O)N[C@H]1[C@H]([C@H](O)[C@H](O)CO)OC(C(=O)O)=C[C@@H]1O` [2QWC]: the “ΔG, kcal/mol (free energy of ligand-protein binding)” value is -4.8 kcal/mol. In the case of `C[C@H]1O[C@@H](O)[C@H](O)[C@@H](O)[C@H]1O` [1APB], the “ΔG, kcal/mol (free energy of ligand-protein binding)” value was -7.8 kcal/mol. With `Cc1ccc(S(=O)(=O)N[C@@H](Cc2cccc(C(=N)N)c2)C(=O)N2CCCCC2)cc1` [1PPH], the “ΔG, kcal/mol (free energy of ligand-protein binding)” value is -8.4 kcal/mol.

Consider `CC(=O)N[C@H]1[C@H]([C@@H](O)[C@@H](O)CO)O[C@@](O)(C(=O)O)C[C@@H]1O` [1NSC], for which the “ΔG, kcal/mol (free energy of ligand-protein binding)” value is -4.1 kcal/mol. Take `C[C@]12CCC(=O)C[C@H]1CC[C@@H]1[C@@H]2CC[C@]2(C)C(=O)CC[C@@H]12` [1DBK]: the “ΔG, kcal/mol (free energy of ligand-protein binding)” value is -11 kcal/mol. Regarding `OC[C@H]1O[C@@H](O)[C@H](O)[C@@H]1O` [2DRI], the “ΔG, kcal/mol (free energy of ligand-protein binding)” value was -8.9 kcal/mol. With `O=C(COP(=O)(O)O)NO` [7TIM], the “ΔG, kcal/mol (free energy of ligand-protein binding)” value was -7.4 kcal/mol. In the case of `O=P(O)(O)OC[C@@H](O)CO` [6TIM], the “ΔG, kcal/mol (free energy of ligand-protein binding)” value was -4.4 kcal/mol. Take `CCN(CC)C(=O)[C@@H]1OC(C(=O)O)=C[C@H](N)[C@H]1NC(C)=O` [2QWG]: the “ΔG, kcal/mol (free energy of ligand-protein binding)” value is -11.5 kcal/mol. As to `NS(=O)(=O)c1cc2c(s1)S(=O)(=O)N(Cc1cccs1)C[C@@H]2O` [1BNU], the “ΔG, kcal/mol (free energy of ligand-protein binding)” value is -13.8 kcal/mol. As for `CC(=O)[C@H]1CC[C@H]2[C@@H]3CC[C@H]4C[C@@H](OC(=O)CCC(=O)O)CC[C@]4(C)[C@H]3CC[C@]12C` [2DBL], the “ΔG, kcal/mol (free energy of ligand-protein binding)” value was -11.9 kcal/mol.

For `CCN[C@H]1CN(CCOC)S(=O)(=O)c2sc(S(N)(=O)=O)cc21` [1BNQ], the “ΔG, kcal/mol (free energy of ligand-protein binding)” value is -13.5 kcal/mol. For `N=C(N)c1ccccc1` [1DWB], the “ΔG, kcal/mol (free energy of ligand-protein binding)” value was -4 kcal/mol. Turning to `CC(=O)N[C@H]1[C@H]([C@H](O)[C@H](O)CO)O[C@@](O)(C(=O)O)C[C@@H]1O` [2QWB], the “ΔG, kcal/mol (free energy of ligand-protein binding)” value was -3.7 kcal/mol.

`CNC(=O)[C@H](Cc1ccccc1)NC(=O)[C@@H](CC(=O)NO)CC(C)C` [1MNC]: the “ΔG, kcal/mol (free energy of ligand-protein binding)” value is -12.6 kcal/mol. As for `COc1cccc(N2CCc3cc(S(N)(=O)=O)sc3S2(=O)=O)c1` [1BNN], the “ΔG, kcal/mol (free energy of ligand-protein binding)” value is -14.2 kcal/mol. `C[C@H](NC(=O)[C@@H](CS)Cc1ccccc1)C(=O)NCC(N)=O` [1JAO]: the “ΔG, kcal/mol (free energy of ligand-protein binding)” value was -8.1 kcal/mol. For the compound `O[C@@H]1[C@@H](O)[C@@H](O)CO[C@H]1O` [1ABE], the “ΔG, kcal/mol (free energy of ligand-protein binding)” value is -9.2 kcal/mol. Take `C[C@H]1C[C@H](N)c2cc(S(N)(=O)=O)sc2S1(=O)=O` [1CIM]: the “ΔG, kcal/mol (free energy of ligand-protein binding)” value is -12 kcal/mol. As to `CC1=C(/C=C/C(C)=C/C=C/C(C)=C/CO)C(C)(C)CCC1` [1BRP], the “ΔG, kcal/mol (free energy of ligand-protein binding)” value was -9.3 kcal/mol. On to `OC[C@H]1O[C@H](O)[C@H](O)[C@@H](O)[C@H]1O` [5ABP], for which the “ΔG, kcal/mol (free energy of ligand-protein binding)” value is -8.9 kcal/mol.
